Data as given in the supplement of paper PMC9663587.

What was measured:
Test in all cases: increase in dead-cell fraction, 72 h; higher = more death;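 further: breast cancer cell lines in 384-well plates, stained with Hoechst plus LIVE/DEAD far red dye and imaged, cells above an LDR intensity threshold counted dead, Hoechst-negative corpses included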
[1] = compound: CCN1CCN(Cc2ccc(Nc3ncc(F)c(-c4cc(F)c5nc(C)n(C(C)C)c5c4)n3)nc2)CC1
YKL-5-124 = compound: C=CC(=O)Nc1ccc(C(=O)Nc2[nH]nc3c2CN(C(=O)N[C@H](CN(C)C)c2ccccc2)C3(C)C)cc1 [YKL-5-124]
BSJ-03-123 = compound: CC(=O)c1c(C)c2cnc(Nc3ccc(N4CCN(CCOCCOCCOCCNC(=O)COc5cccc6c5C(=O)N(C5CCC(=O)NC5=O)C6=O)CC4)cn3)nc2n(C2CCCC2)c1=O [BSJ-03-123]
Neratinib/HKI272 = compound: CCOc1cc2ncc(C#N)c(Nc3ccc(OCc4ccccn4)c(Cl)c3)c2cc1NC(=O)/C=C/CN(C)C [Neratinib/HKI272]
LEE011/Ribociclib = compound: CN(C)C(=O)c1cc2cnc(Nc3ccc(N4CCNCC4)cn3)nc2n1C1CCCC1 [LEE011/Ribociclib]
Flavopiridol = compound: CN1CC[C@H](c2c(O)cc(O)c3c(=O)cc(-c4ccccc4Cl)oc23)[C@H](O)C1 [Flavopiridol]

SUM229PE
increase in dead-cell fraction ([1]; 0.001 µM): -0.0006 | increase in dead-cell fraction ([1]; 0.003162 µM): 0.004 | increase in dead-cell fraction ([1]; 0.01 µM): -0.0023 | increase in dead-cell fraction ([1]; 0.03162 µM): -0.0024 | increase in dead-cell fraction ([1]; 0.1 µM): 0.0008 | increase in dead-cell fraction ([1]; 0.3162 µM): -0.006 | increase in dead-cell fraction ([1]; 1 µM): 0.0054 | increase in dead-cell fraction ([1]; 3.162 µM): 0.0064 | increase in dead-cell fraction ([1]; 10 µM): 0.0095 | increase in dead-cell fraction (YKL-5-124; 0.001 µM): 0.0368 | increase in dead-cell fraction (YKL-5-124; 0.003162 µM): 0.0432 | increase in dead-cell fraction (YKL-5-124; 0.01 µM): 0.0321 | increase in dead-cell fraction (YKL-5-124; 0.03162 µM): 0.0316 | increase in dead-cell fraction (YKL-5-124; 0.1 µM): 0.0267 | increase in dead-cell fraction (YKL-5-124; 0.3162 µM): 0.0384 | increase in dead-cell fraction (YKL-5-124; 1 µM): 0.0161 | increase in dead-cell fraction (YKL-5-124; 3.162 µM): 0.0213 | increase in dead-cell fraction (YKL-5-124; 10 µM): 0.0246 | increase in dead-cell fraction (BSJ-03-123; 0.001 µM): 0.0053 | increase in dead-cell fraction (BSJ-03-123; 0.003162 µM): 0.0041 | increase in dead-cell fraction (BSJ-03-123; 0.01 µM): -0.0026 | increase in dead-cell fraction (BSJ-03-123; 0.03162 µM): -0.0037 | increase in dead-cell fraction (BSJ-03-123; 0.1 µM): 0.0091 | increase in dead-cell fraction (BSJ-03-123; 0.3162 µM): 0.0164 | increase in dead-cell fraction (BSJ-03-123; 1 µM): 0.007 | increase in dead-cell fraction (BSJ-03-123; 3.162 µM): 0.0152 | increase in dead-cell fraction (BSJ-03-123; 10 µM): 0.0241 | increase in dead-cell fraction (Neratinib/HKI272; 0.0003162 µM): 0.0008 | increase in dead-cell fraction (Neratinib/HKI272; 0.001 µM): 0.0005 | increase in dead-cell fraction (Neratinib/HKI272; 0.003162 µM): -0.0005 | increase in dead-cell fraction (Neratinib/HKI272; 0.01 µM): 0.0001 | increase in dead-cell fraction (Neratinib/HKI272; 0.03162 µM): 0.0043 | increase in dead-cell fraction (Neratinib/HKI272; 0.1 µM): 0.0062 | increase in dead-cell fraction (Neratinib/HKI272; 0.3162 µM): 0.0046 | increase in dead-cell fraction (Neratinib/HKI272; 1 µM): 0.0111 | increase in dead-cell fraction (Neratinib/HKI272; 3.162 µM): 0.0132 | increase in dead-cell fraction (LEE011/Ribociclib; 0.001 µM): 0.0025 | increase in dead-cell fraction (LEE011/Ribociclib; 0.003162 µM): -0.003 | increase in dead-cell fraction (LEE011/Ribociclib; 0.01 µM): 0.0012 | increase in dead-cell fraction (LEE011/Ribociclib; 0.03162 µM): 0.0068 | increase in dead-cell fraction (LEE011/Ribociclib; 0.1 µM): 0.0061 | increase in dead-cell fraction (LEE011/Ribociclib; 0.3162 µM): 0.0005 | increase in dead-cell fraction (LEE011/Ribociclib; 1 µM): 0.0021 | increase in dead-cell fraction (LEE011/Ribociclib; 3.162 µM): 0.0223 | increase in dead-cell fraction (LEE011/Ribociclib; 10 µM): 0.0109 | increase in dead-cell fraction (Flavopiridol; 0.0001 µM): -0.0011 | increase in dead-cell fraction (Flavopiridol; 0.0003162 µM): -0.0025 | increase in dead-cell fraction (Flavopiridol; 0.001 µM): 0.0061
